According to EPA's aquatic toxicity sets:

These molecules were tested on Pimephales promelas (assay: 96 h LC50 (-log10 mol/L); higher = more toxic).
For `COC(=O)c1ccc(C(=O)OC)c(N)c1`, the “96 h LC50 (-log10 mol/L)” value was 4.37.
For `CCOC(N)=O`, the “96 h LC50 (-log10 mol/L)” value was 1.23.
With `C#CCC(C)O` (stereo unspecified) the “96 h LC50 (-log10 mol/L)” value was 3.38.
For `COc1ccccc1[N+](=O)[O-]`, the “96 h LC50 (-log10 mol/L)” value was 2.9.
For `CC(C)(C)c1ccc(CSc2cnn(C(C)(C)C)c(=O)c2Cl)cc1`, the “96 h LC50 (-log10 mol/L)” value was 8.2.
With `C=C(CCl)CCl` the “96 h LC50 (-log10 mol/L)” value was 5.82.
With `CCOP(=S)(OCC)Oc1ccc(S(C)=O)cc1` (stereo unspecified) the “96 h LC50 (-log10 mol/L)” value was 3.85.
With `O=C1C2CC3CC(C2)CC1C3` the “96 h LC50 (-log10 mol/L)” value was 3.39.
With `O=c1cccc(Cl)[nH]1` the “96 h LC50 (-log10 mol/L)” value was 2.78.
In the case of `CCNc1cccc(C)c1`, the “96 h LC50 (-log10 mol/L)” value is reported as 3.44.
With `CCOP(=S)(OCC)SCCSCC` the “96 h LC50 (-log10 mol/L)” value was 4.85.
In the case of `C1CCOC1`, the “96 h LC50 (-log10 mol/L)” value is reported as 1.52.
In the case of `CCOP(=S)(OCC)SC1OCCOC1SP(=S)(OCC)OCC` (stereo unspecified), the “96 h LC50 (-log10 mol/L)” value is reported as 4.66.
In the case of `COP(=O)(OC)Oc1nc(Cl)c(Cl)cc1Cl`, the “96 h LC50 (-log10 mol/L)” value is reported as 8.16.
In the case of `Brc1ccccc1Br`, the “96 h LC50 (-log10 mol/L)” value is reported as 4.76.
For `CC(=O)c1ccc(Cl)c([N+](=O)[O-])c1`, the “96 h LC50 (-log10 mol/L)” value was 4.56.
For `CC(=O)Nc1ccccc1O`, the “96 h LC50 (-log10 mol/L)” value was 3.66.
With `CCC(C)c1cccc(OC(=O)N(C)Sc2ccccc2)c1` (stereo unspecified) the “96 h LC50 (-log10 mol/L)” value was 6.91.
With `CCCCCCC(C)N` (stereo unspecified) the “96 h LC50 (-log10 mol/L)” value was 4.4.
With `BrCC1CCCCO1` (stereo unspecified) the “96 h LC50 (-log10 mol/L)” value was 2.94.
With `CC(C)=CCC/C(C)=C/CO` the “96 h LC50 (-log10 mol/L)” value was 4.59.
`CC(C)SSC(C)C` was tested, and the “96 h LC50 (-log10 mol/L)” value was 4.26.
For `COCOC`, the “96 h LC50 (-log10 mol/L)” value was 1.04.
For `Cc1c([N+](=O)[O-])ccc(N)c1[N+](=O)[O-]`, the “96 h LC50 (-log10 mol/L)” value was 4.25.
For `CCCCOC(=O)c1ccc(C(=O)OCCCC)cc1`, the “96 h LC50 (-log10 mol/L)” value was 5.67.
In the case of `CC(N)CN` (stereo unspecified), the “96 h LC50 (-log10 mol/L)” value is reported as 1.82.
In the case of `C=CCNc1ccccc1`, the “96 h LC50 (-log10 mol/L)” value is reported as 3.57.
In the case of `ClC1=C(Cl)C2(Cl)C3C(Cl)C=CC3C1(Cl)C2(Cl)Cl` (stereo unspecified), the “96 h LC50 (-log10 mol/L)” value is reported as 6.75.
For `O=C(O)CCCOc1ccc(Cl)cc1Cl`, the “96 h LC50 (-log10 mol/L)” value was 4.14.
`CC(=O)O` was tested, and the “96 h LC50 (-log10 mol/L)” value was 2.86.
`CN(C)N` was tested, and the “96 h LC50 (-log10 mol/L)” value was 3.88.
`CC(=O)C(C)CN(C)C` (stereo unspecified) was tested, and the “96 h LC50 (-log10 mol/L)” value was 4.18.
For `CCSCCCCSCC`, the “96 h LC50 (-log10 mol/L)” value was 4.47.
In the case of `C#CCN(CC#C)CC#C`, the “96 h LC50 (-log10 mol/L)” value is reported as 2.65.
`C=C(C)[C@H]1CC=C(C)CC1` was tested, and the “96 h LC50 (-log10 mol/L)” value was 5.28.
With `CC(=O)Br` the “96 h LC50 (-log10 mol/L)” value was 3.48.
With `O=Cc1ccco1` the “96 h LC50 (-log10 mol/L)” value was 3.57.
In the case of `CCC(C)n1c(=O)[nH]c(C)c(Br)c1=O` (stereo unspecified), the “96 h LC50 (-log10 mol/L)” value is reported as 3.15.
For `COP(=O)(O)OC`, the “96 h LC50 (-log10 mol/L)” value was 3.85.
In the case of `C=C1[C@H]2CC[C@@H]3[C@H]2C(C)(C)CCC[C@]13C`, the “96 h LC50 (-log10 mol/L)” value is reported as 4.3.
For `COc1ccc(C(c2ccc(OC)cc2)C(Cl)(Cl)Cl)cc1`, the “96 h LC50 (-log10 mol/L)” value was 7.61.
`C=CCCCCCCC=C` was tested, and the “96 h LC50 (-log10 mol/L)” value was 5.68.
`Nc1ccc([N+](=O)[O-])cc1Cl` was tested, and the “96 h LC50 (-log10 mol/L)” value was 3.93.
In the case of `COc1ccc(C(C)=O)c(OC)c1OC`, the “96 h LC50 (-log10 mol/L)” value is reported as 3.02.
With `CCOP(=S)(OCC)Oc1nc(Cl)c(Cl)cc1Cl` the “96 h LC50 (-log10 mol/L)” value was 6.36.
In the case of `CCNc1nc(NC(C)(C)C)nc(OC)n1`, the “96 h LC50 (-log10 mol/L)” value is reported as 3.66.
`CC(C)C(C(=O)OC(C#N)c1cccc(Oc2ccccc2)c1)c1ccc(Cl)cc1` (stereo unspecified) was tested, and the “96 h LC50 (-log10 mol/L)” value was 8.14.
In the case of `CC12CCC(CC1)C(C)(C)O2`, the “96 h LC50 (-log10 mol/L)” value is reported as 3.18.
With `CCN(CCO)c1cccc(C)c1` the “96 h LC50 (-log10 mol/L)” value was 3.53.
For `CC(C)(C)c1ccc(Oc2cccc(C=O)c2)cc1`, the “96 h LC50 (-log10 mol/L)” value was 5.84.
`CC(C)=C1C=C2CC[C@@H]3[C@](C)(CCC[C@@]3(C)C(=O)O)[C@H]2CC1` was tested, and the “96 h LC50 (-log10 mol/L)” value was 5.31.
`COc1ccc(C=O)c(OC)c1` was tested, and the “96 h LC50 (-log10 mol/L)” value was 3.92.
For `c1ccc(Nc2ccccc2)cc1`, the “96 h LC50 (-log10 mol/L)” value was 4.65.
For `CCCCCCCCS(=O)C(C)Cc1ccc2c(c1)OCO2` (stereo unspecified), the “96 h LC50 (-log10 mol/L)” value was 5.64.
`C1N2CN3CN1CN(C2)C3` was tested, and the “96 h LC50 (-log10 mol/L)” value was 0.449.
With `C#CCCO` the “96 h LC50 (-log10 mol/L)” value was 3.29.
`Cc1ccc(S(=O)(=O)n2ccnc2)cc1` was tested, and the “96 h LC50 (-log10 mol/L)” value was 3.73.
For `CNC(=O)Oc1ccc(N(C)C)c(C)c1`, the “96 h LC50 (-log10 mol/L)” value was 5.03.
With `CCCSP(=O)(OCC)Oc1ccc(Br)cc1Cl` (stereo unspecified) the “96 h LC50 (-log10 mol/L)” value was 6.64.
`CCCCO` was tested, and the “96 h LC50 (-log10 mol/L)” value was 1.59.
`CCCCOCCOC(=O)C(C)Oc1cc(Cl)c(Cl)cc1Cl` (stereo unspecified) was tested, and the “96 h LC50 (-log10 mol/L)” value was 5.57.
